We go through twelve molecules from patent US20240158418A1 (C4 Therapeutics, Inc., priority 2021, published 2024).

Like-named read-outs stand apart in the source and are kept apart here.

What is called DC50 is the concentration at which degradation of the target reaches its halfway point.

The target of one assay is T1, EGFR L858R-T790M (Homo sapiens, UniProt P00533, L858R/T790M).
T1 construct: NCI-H1975 (harboring EGFR heterozygous L858R-T790M mutations); host or cells: NCI-H1975
The assay is described as follows: EGFR degradation, Total EGFR (L858R-specific) HTRF, NCI-H1975. The format is cell-based. The note with it: NCI-H1975 cells, 6 hours, Total EGFR HTRF, read-out: H1975 EGFR DC50. The procedure, abridged:
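HTRF read-outs: pY1068 phospho-EGFR for IC50; total EGFR (pan-EGFR in A431, L858R-specific in mutant lines) for DC50. Compounds were titrated 11 points, half-log, from 10 μM in duplicate onto cells in 10% FBS RPMI, incubated 6 h at 37°C.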
Background: Time-resolved FRET reads energy transfer from a long-lived donor to a nearby acceptor.

For another assay, the target named is EGFR L858R (Homo sapiens, UniProt P00533, L858R). Nature of the assay: EGFR degradation, Total EGFR (L858R-specific) HTRF, NCI-H3255. Type of assay: cell-based. Also on record: NCI-H3255 (harboring EGFR heterozygous L858R mutation); host or cells: NCI-H3255. As to conditions: NCI-H3255 cells, 6 hours, Total EGFR HTRF, read-out: H3255 EGFR DC50. The source says:
NCI-H1975 (harboring EGFR heterozygous L858R-T790M mutations) and NCI-H3255 (harboring EGFR heterozygous L858R mutation) were purchased from ATCC and NCI, respectively. NCI-H1975+CS (harboring EGFR heterozygous L858R-T790M-C797S mutations) was generated using CRISPR technology to introduce the additional C797S mutation by Horizon Discovery. A431 (harboring EGFR wildtype) was purchased from ATCC. RPMI 1640 no-phenol red medium and fetal bovine serum (FBS) were purchased from Gibco (Grand Island, NY, USA). Cell culture flasks and 384-well microplates were acquired from VWR (Radnor, PA, USA). Phosphorylated (pY1068) EGFR and Total EGFR (using L858R-specific detection antibody and pan-EGFR antibody for EGFR mutant cell lines and EGFR wild-type cell lines, respectively) HTRF assay kits were purchased from Cisbio (Bedford, MA, USA).
Degradation of EGFR protein containing L858R mutation or wild-type was determined based on quantification of FRET signal using a Total EGFR (L858R-specific or pan-EGFR detecting) HTRF assay kit. Phospho-EGFR (pEGFR) inhibition was determined based on quantification of FRET signal using a pY1068 EGFR HTRF assay kit. In separate assay plates, test compounds were added to the 384-well plate from a top concentration of 10 μM with 11 points, half log titration in duplicates. For each assay, 12.5 uL of cells suspended in assay media (RPMI 1640 no-phenol red medium+10% FBS) at cell densities indicated for each cell line in Table 8 below were dispensed using a multi-channel pipette to 384-well low volume white HTRF microplates containing a duplicate concentration range of test compounds and DMSO controls. The plates were kept at 37° C. with 5% CO2 for 6 hours and then incubated with either phospho EGFR or Total EGFR HTRF detection antibodies according to the cell line and EGFR mutant being assayed. Cells treated in the absence of the test compound were the negative control. Positive control was set by wells containing all reagents but no cells. FRET signal was acquired on EnVision™ Multilabel Reader (PerkinElmer, Santa Clara, CA, USA). Compound concentration that achieves 50% degradation and inhibition was reported as DC50 and IC50, respectively.

T1 sequence (P00533 25-1210 T790M/L858R): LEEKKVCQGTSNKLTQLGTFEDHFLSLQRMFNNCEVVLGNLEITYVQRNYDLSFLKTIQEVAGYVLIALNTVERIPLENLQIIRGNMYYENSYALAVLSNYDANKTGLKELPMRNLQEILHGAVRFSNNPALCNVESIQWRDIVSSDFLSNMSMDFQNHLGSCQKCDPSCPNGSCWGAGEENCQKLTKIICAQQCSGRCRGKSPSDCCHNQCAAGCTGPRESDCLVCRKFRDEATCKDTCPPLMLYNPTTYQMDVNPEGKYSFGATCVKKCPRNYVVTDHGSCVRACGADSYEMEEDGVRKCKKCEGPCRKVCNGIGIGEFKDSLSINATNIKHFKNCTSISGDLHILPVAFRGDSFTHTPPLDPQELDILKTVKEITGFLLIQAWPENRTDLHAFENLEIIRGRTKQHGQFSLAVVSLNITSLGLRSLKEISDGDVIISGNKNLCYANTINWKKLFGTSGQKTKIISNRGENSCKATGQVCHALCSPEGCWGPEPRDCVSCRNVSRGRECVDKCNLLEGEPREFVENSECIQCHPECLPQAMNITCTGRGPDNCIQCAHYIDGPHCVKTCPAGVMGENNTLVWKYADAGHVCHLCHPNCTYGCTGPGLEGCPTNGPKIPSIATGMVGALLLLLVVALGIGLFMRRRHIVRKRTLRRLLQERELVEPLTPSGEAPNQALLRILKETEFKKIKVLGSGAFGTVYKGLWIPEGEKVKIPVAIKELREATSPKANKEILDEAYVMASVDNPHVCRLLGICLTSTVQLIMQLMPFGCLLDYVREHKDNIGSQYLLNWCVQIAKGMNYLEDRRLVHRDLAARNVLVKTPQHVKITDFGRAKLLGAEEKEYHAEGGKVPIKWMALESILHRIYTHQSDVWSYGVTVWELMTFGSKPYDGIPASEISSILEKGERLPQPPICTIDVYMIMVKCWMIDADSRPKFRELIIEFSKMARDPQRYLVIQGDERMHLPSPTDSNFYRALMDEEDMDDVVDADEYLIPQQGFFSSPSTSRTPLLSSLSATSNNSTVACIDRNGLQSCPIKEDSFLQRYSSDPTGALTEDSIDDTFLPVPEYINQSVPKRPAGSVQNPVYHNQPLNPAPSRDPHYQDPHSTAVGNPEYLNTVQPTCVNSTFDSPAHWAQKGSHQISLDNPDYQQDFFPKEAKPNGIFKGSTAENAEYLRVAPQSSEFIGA
Sequence of EGFR L858R (P00533 25-1210 L858R): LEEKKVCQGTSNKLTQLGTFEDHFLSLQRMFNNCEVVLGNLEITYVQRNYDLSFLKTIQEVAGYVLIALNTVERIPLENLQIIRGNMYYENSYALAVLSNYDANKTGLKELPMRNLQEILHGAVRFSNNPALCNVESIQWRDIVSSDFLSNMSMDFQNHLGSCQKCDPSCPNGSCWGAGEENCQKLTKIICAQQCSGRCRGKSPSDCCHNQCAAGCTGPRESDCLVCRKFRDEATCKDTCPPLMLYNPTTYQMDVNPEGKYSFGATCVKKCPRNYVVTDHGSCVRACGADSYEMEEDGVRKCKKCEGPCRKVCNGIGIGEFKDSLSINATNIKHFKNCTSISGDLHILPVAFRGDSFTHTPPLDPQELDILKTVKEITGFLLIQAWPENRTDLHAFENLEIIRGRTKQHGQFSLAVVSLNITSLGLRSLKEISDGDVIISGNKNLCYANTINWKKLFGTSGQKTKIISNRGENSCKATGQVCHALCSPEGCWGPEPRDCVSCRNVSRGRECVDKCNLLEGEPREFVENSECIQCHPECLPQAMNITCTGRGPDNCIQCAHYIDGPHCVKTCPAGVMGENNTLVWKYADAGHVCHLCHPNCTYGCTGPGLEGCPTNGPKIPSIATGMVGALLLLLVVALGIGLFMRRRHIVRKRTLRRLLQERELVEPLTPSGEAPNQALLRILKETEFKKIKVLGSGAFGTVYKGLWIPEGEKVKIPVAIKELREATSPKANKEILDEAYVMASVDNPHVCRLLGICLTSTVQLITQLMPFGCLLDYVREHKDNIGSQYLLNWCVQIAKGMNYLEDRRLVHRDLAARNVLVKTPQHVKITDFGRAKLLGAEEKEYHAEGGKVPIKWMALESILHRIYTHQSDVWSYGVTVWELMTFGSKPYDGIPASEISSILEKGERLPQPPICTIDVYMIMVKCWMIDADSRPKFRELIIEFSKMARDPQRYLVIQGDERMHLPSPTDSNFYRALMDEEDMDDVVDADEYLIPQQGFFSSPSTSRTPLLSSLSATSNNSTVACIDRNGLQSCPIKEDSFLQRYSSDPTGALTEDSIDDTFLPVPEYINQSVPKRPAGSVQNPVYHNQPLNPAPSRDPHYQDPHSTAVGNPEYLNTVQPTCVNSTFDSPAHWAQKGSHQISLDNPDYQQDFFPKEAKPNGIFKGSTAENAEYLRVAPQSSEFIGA

For the molecule `O=C1CCC(Nc2ccc(N3CCC(O)(CC(=O)N4CC5(C4)CN(c4ccc(-c6cc(F)c7c(c6)C(=O)N(C(C(=O)Nc6nccs6)c6ncn8c6CCC8)C7)cc4)C5)CC3)c(C(F)F)c2)C(=O)N1` (stereo not drawn) [Compound 104, 2-(6-(4-(6-(2-(1-(2-(difluoromethyl)-4-((2,6-dioxopiperidin-3-yl)amino)phenyl)-4-hydroxypiperidin-4-yl)acetyl)-2,6-diazaspiro[3.3]heptan-2-yl)phenyl)-4-fluoro-1-oxoisoindolin-2-yl)-2-(6,7-dihydro-5H-pyrrolo[1,2-c]imidazol-1-yl)-N-(thiazol-2-yl)acetamide], the DC50 on EGFR L858R-T790M (Table 9B) and at EGFR L858R (Table 9B) was below 0.05 µM each time.

Take `O=C1CC[C@H](Nc2ccc(C3CCN(CC(=O)N4CCC(Cc5ccc(-c6cc(F)c7c(c6)C(=O)N(C(C(=O)Nc6nccs6)c6ncn8c6CCC8)C7)cc5)CC4)CC3)c(F)c2)C(=O)N1` (stereo partly drawn) [Compound 60, 2-(6,7-dihydro-5H-pyrrolo[1,2-c]imidazol-1-yl)-2-[6-[4-[[1-[2-[4-[4-[[(3S)-2,6-dioxo-3-piperidyl]amino]-2-fluoro-phenyl]-1-piperidyl]acetyl]-4-piperidyl]methyl]phenyl]-4-fluoro-1-oxo-isoindolin-2-yl]-N-thiazol-2-yl-acetamide]: the DC50 at EGFR L858R-T790M (Table 9A) was 0.05 to 0.15 µM; at EGFR L858R (Table 9A), below 0.05 µM.

On to `O=C1CC[C@@H](Nc2ccc(C3CCN(C(=O)CCCN4CCN(c5ccc(-c6cc(F)c7c(c6)C(=O)N(C(C(=O)Nc6nccs6)c6ncn8c6CCC8)C7)cc5)CC4)CC3)cc2)C(=O)N1` (stereo in doubt) [Compound 176, 2-(6,7-dihydro-5H-pyrrolo[1,2-c]imidazol-1-yl)-2-(6-(4-(4-(4-(4-(4-((2,6-dioxopiperidin-3-yl)amino)phenyl)piperidin-1-yl)-4-oxobutyl)piperazin-1-yl)phenyl)-4-fluoro-1-oxoisoindolin-2-yl)-N-(thiazol-2-yl)acetamide], for which the DC50 at EGFR L858R-T790M (Table 9B) and at EGFR L858R (Table 9B) was below 0.05 µM in each case.

On to `O=C1CC[C@H](Nc2ccc(C3CCN(CC(=O)N4CCN(c5ccc(-c6cc(F)c7cn(C(C(=O)Nc8nccs8)c8ncn9c8CCC9)nc7c6)cn5)CC4)CC3)c(F)c2)C(=O)N1` (stereo partly drawn) [Compound 68, 2-(6,7-dihydro-5H-pyrrolo[1,2-c]imidazol-1-yl)-2-(6-(6-(4-(2-(4-(4-(((S)-2,6-dioxopiperidin-3-yl)amino)-2-fluorophenyl)piperidin-1-yl)acetyl)piperazin-1-yl)pyridin-3-yl)-4-fluoro-2H-indazol-2-yl)-N-(thiazol-2-yl)acetamide], for which the DC50 on EGFR L858R-T790M (Table 9A) and on EGFR L858R (Table 9A) was below 0.05 µM each time.

As for `O=C1CC[C@H](Nc2ccc(C3CCN(CC(=O)N4CC5(CCN(c6ccc(-c7cc(F)c8c(c7)C(=O)N(C(C(=O)Nc7nccs7)c7ncn9c7CCC9)C8)cc6)CC5)C4)CC3)c(F)c2)C(=O)N1` (stereo partly drawn) [Compound 46, 2-(6,7-dihydro-5H-pyrrolo[1,2-c]imidazol-1-yl)-2-(6-(4-(2-(2-(4-(4-(((S)-2,6-dioxopiperidin-3-yl)amino)-2-fluorophenyl)piperidin-1-yl)acetyl)-2,7-diazaspiro[3.5]nonan-7-yl)phenyl)-4-fluoro-1-oxoisoindolin-2-yl)-N-(thiazol-2-yl)acetamide], the DC50 on EGFR L858R-T790M (Table 9A) and on EGFR L858R (Table 9A) was 0.05 to 0.15 µM throughout.

With `O=C1CCC(Nc2cc(F)c(N3CCC(O)(CC(=O)N4CC5(C4)CN(c4ccc(-c6cc(F)c7c(c6)C(=O)N(C(C(=O)Nc6nccs6)c6ncn8c6CCC8)C7)cc4)C5)CC3)c(F)c2)C(=O)N1` (stereo not drawn) [Compound 103, 2-(6,7-dihydro-5H-pyrrolo[1,2-c]imidazol-1-yl)-2-[6-[4-[2-[2-[1-[4-[(2,6-dioxo-3-piperidyl)-amino]-2,6-difluoro-phenyl]-4-hydroxy-4-piperidyl]acetyl]-2,6-diazaspiro[3.3]hept-an-6-yl]-phenyl]-4-fluoro-1-oxo-isoindolin-2-yl]-N-thiazol-2-yl-acetamide], the half-maximal degradation concentration (DC50) at EGFR L858R-T790M (Table 9B) and on EGFR L858R (Table 9B) was below 0.05 µM throughout.

Take `Cn1nc(N2CCC(=O)NC2=O)c2ccc(C3CCN(C(=O)CN4CC5(C4)CN(c4ccc(-c6ccc7cn(C(C(=O)Nc8nccs8)c8ncn9c8CCC9)nc7c6F)cn4)C5)CC3(F)F)cc21` (stereo not drawn) [Compound 73, 2-(6,7-dihydro-5H-pyrrolo[1,2-c]imidazol-1-yl)-2-(6-(6-(6-(2-(4-(3-(2,4-dioxotetrahydropyrimidin-1(2H)-yl)-1-methyl-1H-indazol-6-yl)-3,3-difluoropiperidin-1-yl)-2-oxoethyl)-2,6-diazaspiro[3.3]heptan-2-yl)pyridin-3-yl)-7-fluoro-2H-indazol-2-yl)-N-(thiazol-2-yl)acetamide]: the DC50 on EGFR L858R-T790M (Table 9B) and on EGFR L858R (Table 9B) was below 0.05 µM each time.

`O=C1CCC(Nc2ccc(C3CCN(C(=O)C(=O)N4CCC(Oc5ccc(-c6cc(F)c7c(c6)C(=O)N(C(C(=O)Nc6nccs6)c6ncn8c6CCC8)C7)cc5)CC4)CC3)cc2)C(=O)N1` (stereo not drawn) [Compound 40, 2-(6,7-dihydro-5H-pyrrolo[1,2-c]imidazol-1-yl)-2-[6-[4-[[1-[2-[4-[4-[(2,6-dioxo-3-piperidyl)amino]phenyl]-1-piperidyl]-2-oxo-acetyl]-4-piperidyl]oxy]phenyl]-4-fluoro-1-oxo-isoindolin-2-yl]-N-thiazol-2-yl-acetamide]: the DC50 at EGFR L858R-T790M (Table 9A) and on EGFR L858R (Table 9A) was below 0.05 µM in each case.

`O=C1CCC(Nc2ccc(C3CCN(CC(=O)N4CCN(c5ccc(-c6cc(F)c7c(c6)C(=O)N(C(C(=O)Nc6nccs6)c6ncn8c6CCC8)C7)cc5)CC4)CC3)c(F)c2)C(=O)N1` (stereo not drawn) [Compound 180, 2-(6,7-dihydro-5H-pyrrolo[1,2-c]imidazol-1-yl)-2-[6-[4-[4-[2-[4-[4-[(2,6-dioxo-3-piperidyl)amino]-2-fluoro-phenyl]-1-piperidyl]acetyl]piperazin-1-yl]phenyl]-4-fluoro-1-oxo-isoindolin-2-yl]-N-thiazol-2-yl-acetamide]: the DC50 on EGFR L858R-T790M (Table 9B) and on EGFR L858R (Table 9B) was below 0.05 µM each time.

With `O=C1CCC(Nc2ccc(C3CCN(C(=O)CN4CCN(c5ccc(-c6cc(F)c7c(c6)C(=O)N(C(C(=O)Nc6nccs6)c6ncn8c6CCC8)C7)cc5)CC4)CC3)cc2)C(=O)N1` (stereo not drawn) [Compound 178, 2-(6,7-dihydro-5H-pyrrolo[1,2-c]imidazol-1-yl)-2-(6-(4-(4-(2-(4-(4-((2,6-dioxopiperidin-3-yl)amino)phenyl)piperidin-1-yl)-2-oxoethyl)piperazin-1-yl)phenyl)-4-fluoro-1-oxoisoindolin-2-yl)-N-(thiazol-2-yl)acetamide], the DC50 on EGFR L858R-T790M (Table 9B) and on EGFR L858R (Table 9B) was below 0.05 µM each time.

For `O=C1CC[C@H](Nc2ccc(C3CCN(CC(=O)N4C[C@H]5C[C@@H]4CN5c4ccc(-c5cc(F)c6c(c5)C(=O)N(C(C(=O)Nc5nccs5)c5ncn7c5CCC7)C6)cc4)CC3)c(F)c2)C(=O)N1` (stereo partly drawn) [Compound 80, 2-(6,7-dihydro-5H-pyrrolo[1,2-c]imidazol-1-yl)-2-(6-(4-((1R,4R)-5-(2-(4-(4-(((S)-2,6-dioxopiperidin-3-yl)amino)-2-fluorophenyl)piperidin-1-yl)acetyl)-2,5-diazabicyclo[2.2.1]heptan-2-yl)phenyl)-4-fluoro-1-oxoisoindolin-2-yl)-N-(thiazol-2-yl)acetamide], the values for the DC50 at EGFR L858R-T790M (Table 9B) and on EGFR L858R (Table 9B) were 0.05 to 0.15 µM and below 0.05 µM, respectively.

As to `O=C1CC[C@H](Nc2ccc(C3CCN(CC(=O)N4CC5(C4)CN(c4ccc(-c6cc(F)c7c(c6)C(=O)N(C(C(=O)Nc6ccccn6)c6ncn8c6CCC8)C7)cc4)C5)CC3)c(F)c2)C(=O)N1` (stereo partly drawn) [Compound 53, 2-(6,7-dihydro-5H-pyrrolo[1,2-c]imidazol-1-yl)-2-[6-[4-[2-[2-[4-[4-[[(3S)-2,6-dioxo-3-piperidyl]amino]-2-fluoro-phenyl]-1-piperidyl]acetyl]-2,6-diazaspiro[3.3]heptan-6-yl]phenyl]-4-fluoro-1-oxo-isoindolin-2-yl]-N-(2-pyridyl)acetamide], the DC50 on EGFR L858R-T790M (Table 9A) is 0.05 to 0.15 µM; at EGFR L858R (Table 9A), below 0.05 µM.
